{"source": "patent US11845774B2", "about": "“Sterol derivatives and preparation method and uses thereof” (BEIJING PEKING UNIVERSITY WBL BIOTECH CO., LTD., priority 2011, dated 2023)", "key": {"[1]": {"system": "mice melanoma cell B16-F10", "assay": "MTT test of inhibiting cancer cells, B16-F10", "format": "cell-based", "details": "Mus musculus, 72 hours, FIG. 8, read-out: IC50 value, growth of B16-F10", "description": "(§1) Cancer cells of exponential growth phase were inoculated on 96-well plate, 2×10^4 cells/well, added with drug until final drug concentrations were: 500, 250, 125, 62.5, 31.25, 15.625 and 7.8125 μg/mL, cultured at 37° C. in 5% CO2 cell culture incubator for 72 hours, then added with MTT, 10 μL/well, incubated in dark at 37° C. for 4 hours, culture medium was removed, 150 μL of DMSO or acidified isopropanol was added, vibrated for 5 minutes, and then OD values were measured under wavelength of 570 nm. This was repeated for 3 times, and a blank control was set. These cell strains used the same culture medium, i.e., RPMI1640 culture medium containing 10% fetal bovine serum and 1% double antibody (penicillin and steptomycin).\n(§2) Calculation Formula: Cell survival rate=(OD value of test group/OD value of control group)×100%."}, "[2]": {"system": "human tissue lymphoma cell U937", "assay": "MTT test of inhibiting cancer cells, U937", "format": "cell-based", "details": "U-937, 72 hours, FIG. 7, read-out: IC50 value, growth of U937", "description": "as §1, §2"}, "[3]": {"system": "mice hepatoma cell line H22", "assay": "MTT test of inhibiting cancer cells, H22", "format": "cell-based", "details": "Mus musculus, 72 hours, FIG. 2, read-out: IC50 value, growth of H22", "description": "as §1, §2"}, "[4]": {"biological_target": "T1, Porcine pancreatic lipase (Sus scrofa, UniProt P00591)", "T1 construct": "purchased Sigma", "T1 sequence (P00591 1-450)": "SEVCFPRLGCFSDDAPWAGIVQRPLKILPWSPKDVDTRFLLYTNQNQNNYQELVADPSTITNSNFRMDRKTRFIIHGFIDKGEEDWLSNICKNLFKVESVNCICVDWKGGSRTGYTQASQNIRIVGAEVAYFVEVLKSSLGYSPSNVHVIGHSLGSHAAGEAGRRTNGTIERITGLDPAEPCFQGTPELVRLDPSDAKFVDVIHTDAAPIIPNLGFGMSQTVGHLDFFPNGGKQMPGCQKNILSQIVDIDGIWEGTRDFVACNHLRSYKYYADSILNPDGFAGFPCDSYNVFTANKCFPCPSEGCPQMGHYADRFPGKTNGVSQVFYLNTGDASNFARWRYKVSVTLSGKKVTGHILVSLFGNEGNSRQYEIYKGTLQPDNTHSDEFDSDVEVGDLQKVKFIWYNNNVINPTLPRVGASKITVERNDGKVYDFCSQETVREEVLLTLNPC", "assay": "Test of activity of inhibiting lipase (copper oleate colorimetry, olive oil substrate)", "format": "biochemical, pig", "details": "for Absorbance: 714 nm, blank control 0.6680; for Enzyme activity: blank control 1.69; for Concentration of generated oleic acid: blank control 2.75", "description": "2.1 Preparation of light absorbance working curve for fatty acid: a series of oleic acid-toluene solutions with different concentrations (0-3.5 mmol/L, separately being 0, 0.225, 0.45, 0.675, 0.9, 1.125, 1.35, 1.8, 2.25, 2.7, and 3.5 mmol/L), 4 mL of each was taken and placed in conical flask, added with 1 mL of color developing agent, stirred with magnetic force for 3 minutes, oleic acid molecules and copper ions formed a green complex compound, after centrifugation, organic phase of upper layer was taken and measured at 714 nm to determine light absorbance.\n2.2 Enzyme solution was 0.5 mg/mL pancreatic lipase solution; buffer solution was 0.07M NaH2PO4—K2HPO4 phosphate buffer solution (pH 7.0); color developing agent was 5% copper acetate solution, which was regulated with pyridine to have pH 6.1.\n3 mL of 0.07M phosphate buffer solution and 1 mL of olive oil were pre-heated at a constant temperature of 37° C. for 5 minutes in water bath under agitation with a magnetic stirrer, added with 1.3 mL of enzyme solution (negative control was that without enzyme inhibitor; positive control is that added with 100 μL of 0.1 mg/mL orlistat solution; […]), stirred with magnetic force for 10 minutes, immediately added with 8 mL of toluene, stirred continuously for 2 minutes, the reaction was terminated, the generated oleic acid was extracted. The solutions were transferred to centrifuge tube, centrifuged under 4000 rpm for 10 minutes, and the organic phase and water phase were layered and clarified. 4 mL of the upper layer organic phase was taken and placed in a small conical flask, added with 1 mL of color developing agent, stirred with magnetic stirrer for 3 minutes, the generated oleic acid reacted with copper ions to form green complex compound. After centrifugation under 4000 rpm for 10 minutes, the upper layer of toluene solution containing copper oleate was taken, and measured with a spectrophotometer at 714 nm to determine its light absorbance. A blank solution without lipase was prepared as control by the same method, and concentration of fatty acid could be determined by referring to light absorbance working curve of oleic acid.\nEnzyme activity unit of lipase was defined as follows: an enzyme amount to release 1 μmol fatty acid under certain condition was defined as 1 unit of lipase activity (U).\nThe following formula was used to calculate enzyme activity: X=(cV)/(tV′)\nwherein: X represents enzyme activity of lipase, U/mL; c represents concentration of fatty acid, […]; V represents volume of fatty acid solution, mL; V′ represents amount of enzyme solution, mL; t represents action time, minute. Inhibition rate=[(enzyme activity of lipase−enzyme activity of lipase after inhibition)/enzyme activity of lipase]×100%"}, "HepG2 cells": {"system": "HepG2 cells", "assay": "MTT test of inhibiting cancer cells, HepG2", "format": "cell-based", "details": "Homo sapiens, 72 hours, FIG. 3, read-out: IC50 value, growth of human hepatoma cell line", "description": "as §1, §2"}, "[5]": {"details": "final concentration of inhibitor in the system 111 μg/mL"}, "[6]": {"details": "final concentration of inhibitor in the system 166 μg/mL"}, "[7]": {"details": "final concentration of inhibitor in the system 203 μg/mL"}, "[8]": {"details": "final concentration of inhibitor in the system 240 μg/mL"}, "[9]": {"details": "final concentration of inhibitor in the system 333 μg/mL"}}, "data": [{"smiles": "C[C@@H](C(O)C1OC2C[C@H]3C4=CC=C5CC(O)CC[C@]5(C)[C@H]4CC[C@]3(C)[C@H]2[C@@]1(C)O)C(C)(C)O", "note": "(stereo partly shown) [Compound of Formula II, 16,22-epoxy-ergosta-5,7-dien-3,20,23,25-tetraol]", "values": [{"measurement": "IC50", "setting": "[1]", "value": "~62.5", "unit": "µg/mL"}, {"measurement": "IC50", "setting": "[2]", "value": "~50", "unit": "µg/mL"}, {"measurement": "IC50", "setting": "[3]", "value": "~50", "unit": "µg/mL"}, {"measurement": "Absorbance", "setting": "[4]; [5]", "value": 0.5665}, {"measurement": "Absorbance", "setting": "[4]; [6]", "value": 0.5035}, {"measurement": "Absorbance", "setting": "[4]; [7]", "value": 0.3998}, {"measurement": "Absorbance", "setting": "[4]; [8]", "value": 0.2743}, {"measurement": "Absorbance", "setting": "[4]; [9]", "value": 0.2611}, {"measurement": "Inhibition rate", "setting": "[4]; [5]", "value": 15.38, "unit": "%"}, {"measurement": "Enzyme activity", "setting": "[4]; [5]", "value": 1.43, "unit": "U/mL"}, {"measurement": "Concentration of generated oleic acid", "setting": "[4]; [5]", "value": 2.32, "unit": "mM"}, {"measurement": "Inhibition rate", "setting": "[4]; [6]", "value": 24.85, "unit": "%"}, {"measurement": "Enzyme activity", "setting": "[4]; [6]", "value": 1.27, "unit": "U/mL"}, {"measurement": "Concentration of generated oleic acid", "setting": "[4]; [6]", "value": 2.06, "unit": "mM"}, {"measurement": "Inhibition rate", "setting": "[4]; [7]", "value": 40.83, "unit": "%"}, {"measurement": "Enzyme activity", "setting": "[4]; [7]", "value": 1.00, "unit": "U/mL"}, {"measurement": "Concentration of generated oleic acid", "setting": "[4]; [7]", "value": 1.63, "unit": "mM"}, {"measurement": "Inhibition rate", "setting": "[4]; [8]", "value": 59.76, "unit": "%"}, {"measurement": "Enzyme activity", "setting": "[4]; [8]", "value": 0.68, "unit": "U/mL"}, {"measurement": "Concentration of generated oleic acid", "setting": "[4]; [8]", "value": 1.10, "unit": "mM"}, {"measurement": "Inhibition rate", "setting": "[4]; [9]", "value": 62.13, "unit": "%"}, {"measurement": "Enzyme activity", "setting": "[4]; [9]", "value": 0.64, "unit": "U/mL"}, {"measurement": "Concentration of generated oleic acid", "setting": "[4]; [9]", "value": 1.04, "unit": "mM"}, {"measurement": "IC50", "setting": "[4]; read-out: IC50 value, inhibition of activity of lipase (converted)", "value": "~478", "unit": "µM"}, {"measurement": "IC50", "setting": "HepG2 cells", "value": "~200", "unit": "µg/mL"}]}]}
